Data: patent US20020102893A1, “ANTI-TACK SPANDEX FIBERS CONTAINING ANTIMICROBIAL AGENTS THEREIN AND FABRICS MADE THEREFROM” (priority 2000, published 2002)

How the values were obtained:
[1] = Discoloration (photoreduction) of spandex yarns after exposure to indoor fluorescent light; format: physicochemical; settings: after 1 month under typical indoor (fluorescent) light; antimicrobial within spandex yarn
Procedure: The Example spandex yarns were also tested for discoloration (photoreduction) after exposure to typical indoor (fluorescent) light after 1 month of such storage. […] Thus, for this purpose AlphaSan®-type antimicrobials are most preferred. […] Thus, for anti-tack, discoloration, and resiliency within and on the target spandex yarns, the AlphaSan® antimicrobials are, again, most preferred. The discoloration results are as follows, again with a non-antimicrobial control for comparison: […]

[2] = no test described; cited from earlier work

Question: Which results are given for Oc1cc(Cl)ccc1Oc1ccc(Cl)cc1Cl [triclosan]?
Answer: discoloration (photoreduction) performance, in words [1]: excellent colorations; water solubility [2]: highly water soluble
